Laboratory results published in PubChem BioAssay (NCI).
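1) Cells in 96-well plates. 2) Compound, 48 h, 5 concentrations. 3) Linear interpolation between surrounding doses. 4) Unreached endpoint = highest concentration. The concentration for full growth arrest is given as TGI.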

How the values were obtained:
Test in all cases: NCI anticancer screen, dose series, 48 h
PC-3 prostate = system: PC-3 prostate
MDA-MB-231 breast = system: MDA-MB-231 breast
HS 578T breast = system: HS 578T breast
COLO 205 colon = system: COLO 205 colon
U251 CNS = system: U251 CNS
A549 NSCLC = system: A549 NSCLC
SNB-75 CNS = system: SNB-75 CNS
M14 melanoma = system: M14 melanoma
MALME-3M melanoma = system: MALME-3M melanoma
HCT-15 colon = system: HCT-15 colon
OVCAR-3 ovarian = system: OVCAR-3 ovarian
SF-539 CNS = system: SF-539 CNS
CCRF-CEM leukemia = system: CCRF-CEM leukemia
LOX IMVI melanoma = system: LOX IMVI melanoma
SK-MEL-2 melanoma = system: SK-MEL-2 melanoma
HCC-2998 colon = system: HCC-2998 colon
OVCAR-5 ovarian = system: OVCAR-5 ovarian
786-0 renal = system: 786-0 renal
SK-OV-3 ovarian = system: SK-OV-3 ovarian
DU-145 prostate = system: DU-145 prostate
NCI-H23 lung = system: NCI-H23 lung
HOP-92 NSCLC = system: HOP-92 NSCLC
T-47D breast = system: T-47D breast
KM12 colon = system: KM12 colon
SNB-19 CNS = system: SNB-19 CNS
SF-295 CNS = system: SF-295 CNS
CAKI-1 renal = system: CAKI-1 renal
A498 renal = system: A498 renal
SK-MEL-5 melanoma = system: SK-MEL-5 melanoma
NCI-H460 lung = system: NCI-H460 lung
K-562 leukemia = system: K-562 leukemia
SN12C renal = system: SN12C renal
RPMI-8226 leukemia = system: RPMI-8226 leukemia
SF-268 CNS = system: SF-268 CNS
EKVX NSCLC = system: EKVX NSCLC
NCI/ADR-RES ovarian = system: NCI/ADR-RES ovarian
HT29 colon = system: HT29 colon
NCI-H226 lung = system: NCI-H226 lung
HL-60(TB) leukemia = system: HL-60(TB) leukemia
MDA-MB-435 = system: MDA-MB-435
NCI-H522 lung = system: NCI-H522 lung
UACC-257 melanoma = system: UACC-257 melanoma
OVCAR-8 ovarian = system: OVCAR-8 ovarian
IGROV1 ovarian = system: IGROV1 ovarian
ACHN renal = system: ACHN renal
HCT-116 colon = system: HCT-116 colon
OVCAR-4 ovarian = system: OVCAR-4 ovarian
MDA-N = system: MDA-N
UACC-62 melanoma = system: UACC-62 melanoma
BT-549 breast = system: BT-549 breast
SW-620 colon = system: SW-620 colon
TK-10 renal = system: TK-10 renal
MOLT-4 leukemia = system: MOLT-4 leukemia
MCF7 breast = system: MCF7 breast
HOP-62 NSCLC = system: HOP-62 NSCLC
SK-MEL-28 melanoma = system: SK-MEL-28 melanoma
RXF 393 renal = system: RXF 393 renal
UO-31 renal = system: UO-31 renal

O=C(O)C1C(C(=O)O)C2C(=O)C=CC1N2Cc1ccccc1 (stereo not given)
TGI (PC-3 prostate): 18.8 µM
TGI (MDA-MB-231 breast): 14.4 µM
TGI (HS 578T breast): 6.1 µM
TGI (COLO 205 colon): 22.1 µM
TGI (U251 CNS): 14.2 µM
TGI (A549 NSCLC): 22.4 µM
TGI (SNB-75 CNS): 6.97 µM
TGI (M14 melanoma): 5.99 µM
TGI (MALME-3M melanoma): 8.73 µM
TGI (HCT-15 colon): 10.3 µM
TGI (OVCAR-3 ovarian): 10.1 µM
TGI (SF-539 CNS): 7.56 µM
TGI (CCRF-CEM leukemia): 2.75 µM
TGI (LOX IMVI melanoma): 19.1 µM
TGI (SK-MEL-2 melanoma): 24.1 µM
TGI (HCC-2998 colon): 7.71 µM
TGI (OVCAR-5 ovarian): 20.5 µM
TGI (786-0 renal): 11.7 µM
TGI (SK-OV-3 ovarian): 17 µM
TGI (DU-145 prostate): 6.17 µM
TGI (NCI-H23 lung): 7.71 µM
TGI (HOP-92 NSCLC): 24.6 µM
TGI (T-47D breast): 15.2 µM
TGI (KM12 colon): 12.7 µM
TGI (SNB-19 CNS): 18.2 µM
TGI (SF-295 CNS): 23.4 µM
TGI (CAKI-1 renal): 14.5 µM
TGI (A498 renal): 42.6 µM
TGI (SK-MEL-5 melanoma): 17.2 µM
TGI (NCI-H460 lung): 5.1 µM
TGI (K-562 leukemia): > 100 µM
TGI (SN12C renal): 5.47 µM
TGI (RPMI-8226 leukemia): 13.6 µM
TGI (SF-268 CNS): 11.3 µM
TGI (EKVX NSCLC): 16.3 µM
TGI (NCI/ADR-RES ovarian): 7.58 µM
TGI (HT29 colon): 12.6 µM
TGI (NCI-H226 lung): 35.8 µM
TGI (HL-60(TB) leukemia): 4.31 µM
TGI (MDA-MB-435): 13.4 µM
TGI (NCI-H522 lung): 3.78 µM
TGI (UACC-257 melanoma): 11.6 µM
TGI (OVCAR-8 ovarian): > 100 µM
TGI (IGROV1 ovarian): 27.1 µM
TGI (ACHN renal): 14.2 µM
TGI (HCT-116 colon): 15.2 µM
TGI (OVCAR-4 ovarian): 16.3 µM
TGI (MDA-N): 11.4 µM
TGI (UACC-62 melanoma): 21.3 µM
TGI (BT-549 breast): 17.4 µM
TGI (SW-620 colon): 11.6 µM
TGI (TK-10 renal): 11.4 µM
TGI (MOLT-4 leukemia): 9.18 µM
TGI (MCF7 breast): 25.7 µM
TGI (HOP-62 NSCLC): 10.5 µM
TGI (SK-MEL-28 melanoma): 15.5 µM
TGI (RXF 393 renal): 7.51 µM
TGI (UO-31 renal): 3.72 µM

N#CC1(C#N)C2CCCCC23OC(=N)C1(C#N)C(c1ccco1)O3 (stereo not given)
TGI (PC-3 prostate): 64.6 µM
TGI (MDA-MB-231 breast): 33 µM
TGI (HS 578T breast): 70.4 µM
TGI (COLO 205 colon): 31.6 µM
TGI (A549 NSCLC): > 100 µM
TGI (SNB-75 CNS): > 100 µM
TGI (M14 melanoma): 41.6 µM
TGI (MALME-3M melanoma): 48.3 µM
TGI (HCT-15 colon): 22.5 µM
TGI (OVCAR-3 ovarian): 33.5 µM
TGI (SF-539 CNS): 51.6 µM
TGI (CCRF-CEM leukemia): > 100 µM
TGI (LOX IMVI melanoma): 37.5 µM
TGI (SK-MEL-2 melanoma): 45.3 µM
TGI (HCC-2998 colon): 31 µM
TGI (OVCAR-5 ovarian): 61.8 µM
TGI (786-0 renal): 31.2 µM
TGI (SK-OV-3 ovarian): > 100 µM
TGI (DU-145 prostate): 90 µM
TGI (NCI-H23 lung): 70.5 µM
TGI (HOP-92 NSCLC): 29.2 µM
TGI (T-47D breast): 51.8 µM
TGI (KM12 colon): > 100 µM
TGI (SNB-19 CNS): > 100 µM
TGI (SF-295 CNS): > 100 µM
TGI (CAKI-1 renal): 24.5 µM
TGI (A498 renal): 57.7 µM
TGI (SK-MEL-5 melanoma): 31.3 µM
TGI (NCI-H460 lung): > 100 µM
TGI (K-562 leukemia): > 100 µM
TGI (SN12C renal): 29.2 µM
TGI (SF-268 CNS): 67.4 µM
TGI (EKVX NSCLC): 79.3 µM
TGI (NCI/ADR-RES ovarian): > 100 µM
TGI (HT29 colon): > 100 µM
TGI (NCI-H226 lung): > 100 µM
TGI (MDA-MB-435): 52.8 µM
TGI (UACC-257 melanoma): 34.9 µM
TGI (OVCAR-8 ovarian): 73.6 µM
TGI (IGROV1 ovarian): 40.3 µM
TGI (ACHN renal): 94.2 µM
TGI (HCT-116 colon): 38.5 µM
TGI (MDA-N): 33.8 µM
TGI (UACC-62 melanoma): 36.4 µM
TGI (BT-549 breast): 30.3 µM
TGI (SW-620 colon): 52.3 µM
TGI (TK-10 renal): 36.1 µM
TGI (MOLT-4 leukemia): > 100 µM
TGI (MCF7 breast): 54 µM
TGI (SK-MEL-28 melanoma): 45.6 µM
TGI (RXF 393 renal): 59.1 µM
TGI (UO-31 renal): > 100 µM
